Format in all cases: cell-based
In one experiment the test system is Botrytis cinerea. Put plainly: Botrytis cinerea microtest in liquid medium (PDB), microtitre plates, optical density. To be noted: 5 days incubation, 100% = no fungal growth.
For a further experiment, the system named is Pyricularia oryzae. Conditions: 3 days incubation, 100% = no fungal growth.
The subject of another experiment is Rhizoctonia solani. Put plainly: Rhizoctonia solani microtest in liquid medium (PDB), microtitre plates, optical density. Conditions: 5 days incubation, 100% = no fungal growth.
For a further experiment, the system named is Gibberella zeae. Conditions: 3 days incubation, 100% = no fungal growth.

Like-named read-outs stand apart in the source and are kept apart here.

Turning to `OC(Cc1ccccc1Cl)(Cn1nc[nH]c1=S)C1(Cl)CC1` (stereo not shown) [Prothioconazole], the Efficacy in % in the experiment on Botrytis cinerea (0.3 ppm) is listed as 40%. For the compound `CON=C(C(=O)OC)c1ccccc1CON=C(C)c1cccc(C(F)(F)F)c1` [Trifloxystrobin], the Efficacy in % in the experiment with Pyricularia oryzae (0.3 ppm) turned out to be 58%.

For the compound `COCC(=O)N(c1c(C)cccc1C)C(C)C(=O)OC` (stereo not shown) [Metalaxyl], the Efficacy in % in the experiment on Rhizoctonia solani (0.001 ppm) is reported as 27%. `CC1=CC(O/C=C2/C(=O)OC3c4ccccc4CC23)OC1=O` (stereo not shown) [Compound A]: the Efficacy in % with Rhizoctonia solani (0.0000001 ppm) worked out at 26%; in the experiment with Pyricularia oryzae (0.00003 ppm), 4%; in the experiment on Gibberella zeae (0.0000001 ppm), 35%; with Botrytis cinerea (0.0000001 ppm), 8%; in the experiment with Botrytis cinerea (0.00003 ppm), 1%. With `CC(C)(C)C(O)(CCc1ccc(Cl)cc1)Cn1cncn1` (stereo not shown) [Tebuconazole], the Efficacy in % in the experiment with Gibberella zeae (0.001 ppm) came out at 23%.

The compound `Cc1nn(C)c(F)c1C(=O)Nc1ccccc1C(C)CC(C)C` (stereo not shown) [N-[2-(1,3-Dimethylbutyl)phenyl]-5-fluor-1,3-dimethyl-1H-pyrazol-4-carboxamid] had an Efficacy in % with Botrytis cinerea (0.001 ppm) of 17%.

For the origin of these results see patent US20100152270A1, “PESTICIDE COMPOSITION COMPRISING A STRIGOLACTONE DERIVATIVE AND A FUNGICIDE COMPOUND” (priority 2007, published 2010).
